Test results as given in patent publication US11439657B2, “Cancer stem cell growth inhibitor using miRNA” (CancerStem Tech Inc., priority 2017, dated 2022).
Entries after “also recorded” stand apart in the source; their conditions may differ.

How the values were obtained:
[1] = tested on: human pancreatic cancer cells (PSN-1 line); assay: Antitumor effect on human pancreatic cancer cells (2), cell count after transfection; format: cell-based; conditions: 10 pmol/well, 48 hours, FIG. 9
Procedure: (§1) A cell suspension prepared by suspending human pancreatic cancer cells (Bxpc3 line) in D-MEM medium (containing 10% by volume FBS) was seeded in each well of a 24-well plate at 3×10^3 cells/well, followed by culture at 37° C. overnight. Thereafter, according to the lipofectamin 2000 protocol, each miRNA was transfected at 10 pmol/well, and 48 hours later, the cells were counted. In addition, tests were also conducted under the same condition on a case where the miRNA was not introduced (untreated group), a case where hsa-miR-34a (SEQ ID NO: 8) was used (positive control) in place of the miRNA, and a case where a control miRNA (SEQ ID NO: 9) was used (control miRNA, negative control) in place of the selected miRNA.
As to hsa-miR-136-5p, hsa-miR-3065-3p and hsa-miR-181a-5p, evaluation was performed of the antitumor effect on human pancreatic cancer cells. The specific test method is the same as that for Test Example 4 except that a PSN-1 line was used as human pancreatic cancer cells.

[2] = tested on: human gastric cancer cells (AGS line); assay: Antitumor effect on human gastric cancer cells, cell count after transfection; format: cell-based; conditions: 10 pmol/well, 48 hours, FIG. 10
Procedure: as §1
As to hsa-miR-136-5p, hsa-miR-3065-3p and hsa-miR-181a-5p, evaluation was performed of the antitumor effect on human gastric cancer cells. The specific test method is the same as that for Test Example 4 except that human gastric cancer cells (AGS line) were used as cancer cells.

[3] = tested on: cancer stem cell population (ZsGreen+) established from pancreatic cancer cell line Panc-1; assay: Screening of miRNAs: cell count (cell viability) of the cancer stem cell population after transfection; format: cell-based, human; conditions: miRNA 10 pmol/well, lipofectamin 2000, cells counted 48 and 72 hours later, FIG. 4
Description: A cancer stem cell line was established by transducing a pancreatic cancer cell line (Panc-1) with an ODC (Ornithine Decarboxylase)-Degron system capable of visualizing low metabolism that is a property of cancer stem cells using a retrovirus vector (FIG. 1a). The base sequence coding the used ODC-Degron is as set forth in SEQ ID NO: 10. Usually, cancer stem cells are so 26s proteasome hypometabolic that they cannot degrade the introduced fluorescently labeled Ornithine Decarboxylase Degron, and thus the fluorescent protein sufficiently accumulates to provide visualization.
However, even when the ODC-degron system was introduced into the pancreatic cancer cell line Panc-1, only about 0.06% cells emitting fluorescence (green) were obtained in total. With such a small number of cancer stem cells, a series of experiments including drug screening cannot be performed. Accordingly, further enrichment of cancer stem cells provided a cancer stem cell population in which cells having observed fluorescent coloring (i.e., cancer stem cells) accounted for about 81.18% in total (FIG. 1b). The obtained cancer stem cell population was designated as ZsGreen+.
A cell suspension prepared by suspending the cancer stem cell population (ZsGreen+) in a medium (DMEM medium containing 10% by volume FBS) was seeded in each well of a 24-well plate at a density of 5000 to 10000 cells/well, followed by culture at 37° C. overnight. Thereafter, according to the lipofectamin 2000 protocol, each miRNA was transfected at 10 pmol/well, and 48 hours and 72 hours later, the cells were counted. In addition, tests were also conducted under the same condition on a case where the miRNA was not introduced (untreated group, control), a case where has-miR-34a (SEQ ID NO: 8) was used (positive control) in place of the selected miRNA, and a case where a control miRNA (SEQ ID NO: 9) was used (NC1, negative control) in place of the selected miRNA. In addition, for comparison, the non-cancer stem cell population (ZsGreen−) was used in place of the cancer stem cell population (ZsGreen+) to conduct tests under the same condition.
The ratio of the number of cells under each condition to the number of control cells into which the miRNA was not introduced (cell viability, %) was determined.

[4] = tested on: human pancreatic cancer cells (Bxpc3 line); assay: Antitumor effect on human pancreatic cancer cells (1), cell count after transfection; format: cell-based; conditions: 10 pmol/well, FIG. 8
Procedure: as §1

[5] = tested on: human large bowel cancer cells (DLD1 line); assay: Antitumor effect on human large bowel cancer cells, cell count after transfection; format: cell-based; conditions: 10 pmol/well, FIG. 11
Procedure: as §1
(§2) As to hsa-miR-136-5p, hsa-miR-3065-3p, hsa-miR-4727-5p, hsa-miR-378g, hsa-miR-181a-5p, hsa-miR-362-5p and hsa-miR-608, evaluation was performed of the antitumor effect on human large bowel cancer cells. The specific test method is the same as that for Test Example 4 except that human large bowel cancer cells (DLD1 line) were used as cancer cells, and that the cells were counted 72 hours after transfection.

[6] = tested on: human esophageal cancer cells (TE11 line); assay: Antitumor effect on human esophageal cancer cells, cell count after transfection; format: cell-based; conditions: 10 pmol/well, FIG. 12
Procedure: as §1
as §2, with “hsa-miR-378g and” for “hsa-miR-378g,”, “hsa-miR-181a-5p,” for “hsa-miR-181a-5p, hsa-miR-362-5p and hsa-miR-608,”, “esophageal” for “large bowel”, “(TE11” for “(DLD1”

[7] = tested on: solid tumor from the cancer stem cell population (ZsGreen+); assay: Mouse subcutaneous solid tumor model test; format: in vivo, BALB/cA nude mice; conditions: carbonate apatite nanoparticles containing the miRNA, 40 μg/dose, tail vein i.v., days 0-19; tumor excised on the 24th day
Procedure: In 100 ml of distilled water, 0.37 g of NaHCO3, 90 μl of NaH2PO4.2H2O (1M) and 180 μl of CaCl2 (1 M) were added in this order and dissolved, and the pH was adjusted to 7.5 with 1N HCl. This was filtered through 0.2 μm diameter filter. Per 1 ml of the resultant buffer, 2 μg of miRNA and 4 μl of CaCl2 (1 M) were mixed and incubated in a water bath at 37° C. for 30 minutes. Then, spin down was performed at 15000 rpm×5 minutes. The resultant pellet was dispersed in physiological saline (containing 0.5 wt % albumin). Accordingly, a dispersion of composite particles containing the miRNA in carbonate apatite particles was obtained. The resultant dispersion was subjected to ultrasonic vibration treatment for 10 minutes just prior to testing. Note that the ultrasonic vibration treatment was performed for 10 minutes using a water bath with an ultrasonic vibration function, in which the dispersion contained in a plastic container was floated on water set to 20° C., under conditions of high frequency output of 55 W and oscillation frequency of 38 kHz. The preparation obtained in this way was immediately used for the tests described below.
Note that it is confirmed in the measurement using a scanning probe microscope that the dispersion of ultrasonic vibration treatment includes composite particles composed of carbonate apatite nanoparticles containing the miRNA having an average particle diameter of 50 nm or less. It is also confirmed that the resultant composite particles contain about 20 μg of the miRNA per 1 mg of carbonate apatite.
The cancer stem cell population (ZsGreen+) obtained in Test Example 1 was subcutaneously injected at 5×10^5 cells to the left and right backs of 6 to 8 weeks age BALB/cA nude mice (manufactured by CLEA Japan, Inc.) to produce solid tumor model mice. When the tumor reached about 20 mm^3 in size, the mice were randomly divided into an hsa-miR-136-5p administration group (hsa-miR-136-5p), an untreated group, and a negative control group (control miRNA). In the hsa-miR-136-5p administration group, the day at which the tumor reached about 20 mm^3 in size was 0th day. On the 0th, 3rd, 5th, 7th, 10th, 12th, 14th, 17th and 19th days, carbonate apatite nanoparticles containing the hsa-miR-136-5p were intravenously injected into the tail vein at 40 μg/dose in terms of the amount of hsa-miR-136-5p. In the negative control group, carbonate apatite nanoparticles containing a control miRNA (SEQ ID NO: 9) were intravenously injected into the tail vein at the same schedule and dose as those for the miRNA136-5p administration group. In the untreated group, no drug was administered. During the test period, the tumor volume on the back of the mouse (longer diameter×shorter diameter×shorter diameter×1/2) was measured over time, and on the 24th day, the tumor was excised from the mice and observed for size, and its weight was measured.
A mouse subcutaneous solid tumor model test was conducted in the same manner as in Test Example 2 except that hsa-miR-3065-3p was used in place of hsa-miR-136-5p.
A mouse subcutaneous solid tumor model test was conducted in the same manner as in Test Example 2 except that hsa-miR-181-5p was used in place of hsa-miR-136-5p.

[8] = 72 hours, positive control hsa-miR-34a
[9] = cells counted 72 hours after transfection

In the case of “hsa-miR-181a-5p: human-derived miR-181a-5p; base sequence set forth in SEQ ID NO: 5 as mature miRNA (AACAUUCAACGCUGUCGGUGAGU; listed as RNA, chemistry not given here; listed as Homo sapiens)”, the “proliferation inhibitory effect on pancreatic cancer cells” value [1] is reported as “strong proliferation inhibitory effect”, the “proliferation inhibitory effect on gastric cancer cells” value [2] is reported as “strong proliferation inhibitory effect” and the antitumor effect ([2]; positive control hsa-miR-34a) is reported as “much better antitumor effect than that of hsa-miR-34a; also recorded: particularly remarkable antitumor effect”. The “proliferation inhibitory effect on cancer stem cells (cell viability)” value [3] was “effectively suppress proliferation of cancer stem cells; also recorded: prominent proliferation inhibitory effect”, the antitumor effect ([4]; 48 hours, positive control hsa-miR-34a) was “much better antitumor effect than that of hsa-miR-34a” and the “proliferation inhibitory effect on pancreatic cancer cells” value ([4]; cells counted 48 hours later) was “strong proliferation inhibitory effect”. For the same substance, the antitumor effect [5, 8] was “much better antitumor effect than that of hsa-miR-34a; also recorded: particularly remarkable antitumor effect”, the “proliferation inhibitory effect on large bowel cancer cells” value [5, 9] was “strong proliferation inhibitory effect” and the antitumor effect [6, 8] was “much better antitumor effect than that of hsa-miR-34a; also recorded: particularly remarkable antitumor effect”. For the same substance, the “proliferation inhibitory effect on esophageal cancer cells” value [6, 9] was “strong proliferation inhibitory effect” and the “antitumor effect as compared to the untreated group and the negative control group (control miRNA)” value [7] was “remarkably higher antitumor effect”.
